Test results: patent US11078213B2, “Thienopyrimidine compound, preparation method thereof, pharmaceutical composition and application thereof” (HONGYUN BIOTECH CO., LTD., priority 2016, dated 2021)

Experiments:
NPM-ALK-BaF3 = target: T1, NPM-ALK-BaF3 (Homo sapiens, UniProt Q9UM73); experiment: Growth inhibition of BaF3 cells stably transfected with kinase NPM-ALK (MTS); format: cell-based; conditions: compound concentration 3.3 μM, read-out: cell growth inhibition rate, NPM-ALK
T1 construct: NPM (nuclear phosphoprotein / nucleophosmin, NPM1, P06748) fusion partner; expressed in transfected cells; host or cells: BaF3; the other entry of the earlier key: NPM1 (P06748, Nucleophosmin)
T1 sequence (Q9UM73 with tags, fused parts or gaps): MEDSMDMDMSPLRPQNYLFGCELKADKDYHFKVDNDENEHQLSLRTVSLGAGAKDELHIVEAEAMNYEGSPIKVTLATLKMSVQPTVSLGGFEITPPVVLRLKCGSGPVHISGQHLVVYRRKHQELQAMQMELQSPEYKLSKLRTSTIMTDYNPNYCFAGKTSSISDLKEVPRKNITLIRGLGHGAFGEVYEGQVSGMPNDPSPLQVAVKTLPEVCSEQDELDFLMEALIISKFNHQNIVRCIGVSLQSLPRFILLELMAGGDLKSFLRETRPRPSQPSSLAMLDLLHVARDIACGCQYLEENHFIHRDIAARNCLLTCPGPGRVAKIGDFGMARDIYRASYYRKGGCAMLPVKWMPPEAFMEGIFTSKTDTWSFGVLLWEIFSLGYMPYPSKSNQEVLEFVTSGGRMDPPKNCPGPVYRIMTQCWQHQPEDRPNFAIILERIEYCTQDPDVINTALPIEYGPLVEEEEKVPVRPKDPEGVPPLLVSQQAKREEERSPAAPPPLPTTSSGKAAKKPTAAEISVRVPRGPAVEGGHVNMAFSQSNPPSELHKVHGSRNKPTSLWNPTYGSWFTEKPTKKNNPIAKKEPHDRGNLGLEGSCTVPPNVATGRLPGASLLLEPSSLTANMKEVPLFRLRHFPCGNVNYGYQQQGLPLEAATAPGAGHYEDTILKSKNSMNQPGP
Description: (§1) The specific test method is given as follows:
(§2) 2) Reagent: MTS reaction solution (containing 2 mg/mL of MTS [3-(4,5-dimethylthiazol-2-yl)-5-(3-carboxymethoxyphenyl)-2-(4-sulfophenyl)-2H-tetra zolium, inner Salt]; 100 µg/mL PES ([…])).

EML4-ALK-BaF3 = target: T2, EML4-ALK-BaF3 (Homo sapiens, UniProt Q9UM73); experiment: Growth inhibition of BaF3 cells stably transfected with kinase EML4-ALK (MTS); format: cell-based; conditions: compound concentration 3.3 μM, read-out: cell growth inhibition rate, EML4-ALK
T2 construct: EML4 (echinoderm microtubule associated protein like 4, Q9HC35) fusion partner; expressed in transfected cells; host or cells: BaF3; the other entry of the earlier key: EML4 (Q9HC35, Echinoderm microtubule-associated protein-like 4)
T2 sequence (Q9UM73 1058-1620 limits assumed): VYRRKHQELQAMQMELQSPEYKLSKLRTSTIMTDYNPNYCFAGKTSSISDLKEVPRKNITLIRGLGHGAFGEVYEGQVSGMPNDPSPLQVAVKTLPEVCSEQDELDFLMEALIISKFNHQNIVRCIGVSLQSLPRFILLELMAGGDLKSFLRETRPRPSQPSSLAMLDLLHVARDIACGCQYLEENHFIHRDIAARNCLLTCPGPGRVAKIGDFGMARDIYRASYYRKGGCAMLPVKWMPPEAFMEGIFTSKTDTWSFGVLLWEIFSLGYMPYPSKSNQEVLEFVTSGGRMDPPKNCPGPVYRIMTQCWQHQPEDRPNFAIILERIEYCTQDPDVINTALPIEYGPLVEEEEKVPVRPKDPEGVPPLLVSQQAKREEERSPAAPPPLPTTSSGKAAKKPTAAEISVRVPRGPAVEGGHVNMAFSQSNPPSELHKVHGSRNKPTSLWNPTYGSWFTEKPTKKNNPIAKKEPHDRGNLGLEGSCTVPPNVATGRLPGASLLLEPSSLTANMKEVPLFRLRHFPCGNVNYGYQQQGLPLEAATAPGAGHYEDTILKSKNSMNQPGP
Description: as §1, §2

inhibition at 3.3 µM (NPM-ALK-BaF3) | inhibition at 3.3 µM (EML4-ALK-BaF3) | SMILES
90% | 99.9% | CNC(=O)c1ccccc1Nc1nc(Nc2cc(C)c(C3CCN(C)CC3)cc2OC)nc2ccsc12 [II-9]
86.6% | > 99% | CNC(=O)c1ccccc1Nc1nc(Nc2cc(C)c(C3CCN(C)CC3)cc2OC(C)C)nc2ccsc12 [II-8]
87.6% | 99% | COC(=O)c1ccccc1Nc1nc(Nc2ccc(N3CCC(N4CCCC4)CC3)cc2OC)nc2ccsc12 [IE-5]
82.8% | 100% | COc1cc(N2CCC(N3CCN(C)CC3)CC2)ccc1Nc1nc(Nc2ccccc2P(C)(C)=O)c2sccc2n1 [IK-2]
88.8% | > 99% | COc1cc(N2CCN(C)CC2)ccc1Nc1nc(Nc2ccccc2[S+]([O-])C(C)C)c2sccc2n1 (centres unmarked) [IJ-4]
12.3% | 98.8% | COC(=O)c1ccccc1Sc1nc(Nc2ccc(N3CCN(C)CC3)cc2OC)nc2ccsc12 [IN-3]
84.5% | 97.8% | COc1cc(N2CCC(N3CCCC3)CC2)ccc1Nc1nc(Nc2ccccc2NS(C)(=O)=O)c2sccc2n1 [IH-6]
87.6% | 97.8% | COc1cc(C2CCN(C)CC2)c(C)cc1Nc1nc(Nc2cccc(NS(C)(=O)=O)c2)c2sccc2n1 [IG-4]
93.9% | > 99% | COC(=O)c1cccc(Nc2nc(Nc3cc(C)c(C4CCN(C)CC4)cc3OC(C)C)nc3ccsc23)c1 [ID-5]
84.2% | 98% | COc1cc(C2CCN(C)CC2)c(C)cc1Nc1nc(Nc2ccccc2NS(C)(=O)=O)c2sccc2n1 [IH-5]
85.5% | 99.6% | COc1cc(C2CCN(C)CC2)c(C)cc1Nc1nc(Nc2ccccc2P(C)(C)=O)c2sccc2n1 [IK-5]
10.9% | > 99% | COc1cc(N2CCC(N3CCCC3)CC2)ccc1Nc1nc(Nc2cccc(NS(C)(=O)=O)c2)c2sccc2n1 [IG-5]
36.9% | 92.9% | CNC(=O)c1ccccc1Nc1nc(Nc2ccc(N3CCC(N4CCN(C)CC4)CC3)cc2)nc2ccsc12 [II-6]
7.09% | 98.3% | COC(=O)c1ccccc1Sc1nc(Nc2ccc(N3CCC(O)CC3)cc2)nc2ccsc12 [IN-4]
16.2% | 99.2% | COC(=O)c1ccccc1Sc1nc(Nc2ccc(N3CCC(N4CCN(C)CC4)CC3)cc2OC)nc2ccsc12 [IN-2]
87.6% | 94.9% | COc1cc2c(cc1Nc1nc(Nc3ccccc3S(C)(=O)=O)c3sccc3n1)N(C(=O)CN(C)C)CC2 [IA-1]
87.7% | 99.3% | COc1cc(N2CCC(N3CCN(C)CC3)CC2)ccc1Nc1nc(Nc2ccccc2[S+]([O-])C(C)C)c2sccc2n1 (centres unmarked) [IJ-2]
-24.1% | 99.9% | COC(=O)c1cccc(Nc2nc(Nc3cc(C)c(C4CCN(C)CC4)cc3OC)nc3ccsc23)c1 [ID-6]
92.7% | 99.8% | COc1cc(N2CCC(N3CCCC3)CC2)ccc1Nc1nc(Nc2ccccc2S(C)(=O)=O)c2sccc2n1 [IA-3]
– | 99.5% | CCP(=O)(CC)c1ccccc1Nc1nc(Nc2ccc(N3CCC(N(C)C)CC3)cc2OC)nc2ccsc12 [IS-6]
– | 97% | COc1cc(N2CCC(N(C)C)CC2)ccc1Nc1nc(Nc2ccccc2S(=O)(=O)C(C)(C)C)c2sccc2n1 [IO-4]
– | 98.3% | COc1cc2c(cc1Nc1nc(Nc3ccccc3S(=O)(=O)C(C)C)c3sccc3n1)N(C(=O)CN1CCCC1)CC2 [IB-33]
46.7% | 98.4% | COC(=O)c1ccccc1Sc1nc(Nc2ccc(N3CCC(N4CCCC4)CC3)cc2OC)nc2ccsc12 [IN-6]

inhibition at 3.3 µM (NPM-ALK-BaF3) | inhibition at 3.3 µM (EML4-ALK-BaF3) | SMILES
86.1% | 98.8% | COC(=O)c1ccccc1Nc1nc(Nc2cc(C)c(C3CCN(C)CC3)cc2OC(C)C)nc2ccsc12 [IE-7]
– | 97.5% | COc1cc2c(cc1Nc1nc(Nc3ccccc3P(=O)(C(C)C)C(C)C)c3sccc3n1)N(C(=O)CN(C)C)CC2 [IR-1]
2.77% | 3.41% | CNC(=O)c1cccc(F)c1Nc1nc(Nc2ccc(N3CCC(N4CCN(C)CC4)CC3)cc2OC)nc2ccsc12 [IF-2]
81.9% | > 99% | COc1cc(N2CCC(N(C)C)CC2)ccc1Nc1nc(Nc2ccccc2[S+]([O-])C(C)C)c2sccc2n1 (centres unmarked) [IJ-6]
0% | 98.5% | CCOc1cc(N2CCN(C)CC2)ccc1Nc1nc(Nc2ccccc2C(=O)OC)c2sccc2n1 [IE-6]
17.7% | 100% | COC(=O)c1ccccc1Sc1nc(Nc2cc3c(cc2OC)CCN3C(=O)CN(C)C)nc2ccsc12 [IN-1]
90.2% | 99.3% | COc1cc(N2CCC(N(C)C)CC2)ccc1Nc1nc(Nc2ccccc2P(C)(C)=O)c2sccc2n1 [IK-6]
– | 99.8% | COc1cc2c(cc1Nc1nc(OCc3ccccc3S(=O)(=O)C(C)C)c3sccc3n1)N(C(=O)CN(C)C)CC2 [IT-1]
82.5% | > 99% | COc1cc(N2CCC(N3CCCC3)CC2)ccc1Nc1nc(Nc2ccccc2P(C)(C)=O)c2sccc2n1 [IK-3]
77.4% | 99.3% | COc1cc(N2CCN(C)CC2)ccc1Nc1nc(Nc2ccccc2P(C)(C)=O)c2sccc2n1 [IK-4]
12% | 87.1% | CNC(=O)c1cccc(F)c1Nc1nc(Nc2ccc(N3CCN(C)CC3)cc2OC)nc2ccsc12 [IF-3]
87.1% | > 99% | COc1cc2c(cc1Nc1nc(Nc3ccccc3[S+]([O-])C(C)C)c3sccc3n1)N(C(=O)CN(C)C)CC2 (centres unmarked) [IJ-1]
– | 96% | COc1cc(N2CCC(N3CCN(C)CC3)CC2)ccc1Nc1nc(Nc2ccccc2S(=O)(=O)C(C)(C)C)c2sccc2n1 [IO-2]
– | 98.7% | COc1cc(N2CCN(C)CC2)ccc1Nc1nc(Nc2ccccc2S(=O)(=O)C(C)(C)C)c2sccc2n1 [IO-3]
84.8% | 99.9% | COc1cc(N2CCC(N3CCCC3)CC2)ccc1Nc1nc(Nc2ccccc2[S+]([O-])C(C)C)c2sccc2n1 (centres unmarked) [IJ-3]
85.5% | 96.7% | COC(=O)c1ccccc1Nc1nc(Nc2ccc(N3CCN(C)CC3)cc2OC)nc2ccsc12 [IE-3]
90.7% | 98.5% | COC(=O)c1cccc(Nc2nc(Nc3ccc(N4CCC(N5CCCC5)CC4)cc3OC)nc3ccsc23)c1 [ID-4]
79.5% | 98.5% | CNC(=O)c1ccccc1Nc1nc(Nc2ccc(N3CCC(N4CCCC4)CC3)cc2OC)nc2ccsc12 [II-7]
– | 99.2% | COc1cc(N2CCN(C)CC2)ccc1Nc1nc(Nc2ccccc2P(=O)(C(C)C)C(C)C)c2sccc2n1 [IR-3]
– | 100% | CC(C)S(=O)(=O)c1ccccc1COc1nc(Nc2ccc(N3CCOCC3)cc2)nc2ccsc12 [IT-4]
– | 97.3% | COc1cc(N2CCN(C)CC2)ccc1Nc1nc(Nc2ccccc2C(=O)NC(C)C)c2sccc2n1 [IP-2]
– | 103% | CCP(=O)(CC)c1ccccc1Nc1nc(Nc2ccc(N3CCN(C)CC3)cc2)nc2ccsc12 [IS-5]
– | 98.2% | CCP(=O)(CC)c1ccccc1Nc1nc(Nc2ccc(N3CCC(N4CCCC4)CC3)cc2OC)nc2ccsc12 [IS-2]
